Experimental data taken from ChEMBL document CHEMBL1147144, “Novel styrylpyridines as probes for SPECT imaging of amyloid plaques” (J Med Chem, 2007).

Key:
Heart [1] = assay: Biodistribution in ICR mouse heart at 5 to 10 uCi, iv after 2 mins; type: ADME, organism-based; conditions: in vivo
Heart [2] = assay: Biodistribution in ICR mouse heart at 5 to 10 uCi, iv after 30 mins; type: ADME, organism-based; conditions: in vivo, 0.5 h
Heart [3] = assay: Biodistribution in ICR mouse heart at 5 to 10 uCi, iv after 1 hr; type: ADME, organism-based; conditions: in vivo
Kidney [4] = assay: Biodistribution in ICR mouse kidney at 5 to 10 uCi, iv after 2 hrs; type: ADME, organism-based; conditions: in vivo
Spleen [5] = assay: Biodistribution in ICR mouse spleen at 5 to 10 uCi, iv after 2 mins; type: ADME, organism-based; conditions: in vivo
Spleen [6] = assay: Biodistribution in ICR mouse spleen at 5 to 10 uCi, iv after 30 mins; type: ADME, organism-based; conditions: in vivo, 0.5 h
Heart [7] = assay: Biodistribution in ICR mouse heart at 5 to 10 uCi, iv after 2 hrs; type: ADME, organism-based; conditions: in vivo
Muscle tissue [8] = assay: Biodistribution in ICR mouse muscle at 5 to 10 uCi, iv after 2 mins; type: ADME, organism-based; conditions: in vivo
Muscle tissue [9] = assay: Biodistribution in ICR mouse muscle at 5 to 10 uCi, iv after 30 mins; type: ADME, organism-based; conditions: in vivo, 0.5 h
Muscle tissue [10] = assay: Biodistribution in ICR mouse muscle at 5 to 10 uCi, iv after 1 hr; type: ADME, organism-based; conditions: in vivo
Muscle tissue [11] = assay: Biodistribution in ICR mouse muscle at 5 to 10 uCi, iv after 2 hrs; type: ADME, organism-based; conditions: in vivo
Lung [12] = assay: Biodistribution in ICR mouse lung at 5 to 10 uCi, iv after 2 mins; type: ADME, organism-based; conditions: in vivo
Lung [13] = assay: Biodistribution in ICR mouse lung at 5 to 10 uCi, iv after 30 mins; type: ADME, organism-based; conditions: in vivo, 0.5 h
Lung [14] = assay: Biodistribution in ICR mouse lung at 5 to 10 uCi, iv after 1 hr; type: ADME, organism-based; conditions: in vivo
Lung [15] = assay: Biodistribution in ICR mouse lung at 5 to 10 uCi, iv after 2 hrs; type: ADME, organism-based; conditions: in vivo
Kidney [16] = assay: Biodistribution in ICR mouse kidney at 5 to 10 uCi, iv after 2 mins; type: ADME, organism-based; conditions: in vivo
Kidney [17] = assay: Biodistribution in ICR mouse kidney at 5 to 10 uCi, iv after 30 mins; type: ADME, organism-based; conditions: in vivo, 0.5 h
Kidney [18] = assay: Biodistribution in ICR mouse kidney at 5 to 10 uCi, iv after 1 hr; type: ADME, organism-based; conditions: in vivo
Spleen [19] = assay: Biodistribution in ICR mouse spleen at 5 to 10 uCi, iv after 1 hr; type: ADME, organism-based; conditions: in vivo
Spleen [20] = assay: Biodistribution in ICR mouse spleen at 5 to 10 uCi, iv after 2 hrs; type: ADME, organism-based; conditions: in vivo
Liver [21] = assay: Biodistribution in ICR mouse liver at 5 to 10 uCi, iv after 2 mins; type: ADME, organism-based; conditions: in vivo
Liver [22] = assay: Biodistribution in ICR mouse liver at 5 to 10 uCi, iv after 30 mins; type: ADME, organism-based; conditions: in vivo, 0.5 h
Liver [23] = assay: Biodistribution in ICR mouse liver at 5 to 10 uCi, iv after 1 hr; type: ADME, organism-based; conditions: in vivo
Liver [24] = assay: Biodistribution in ICR mouse liver at 5 to 10 uCi, iv after 2 hrs; type: ADME, organism-based; conditions: in vivo
Zone of skin [25] = assay: Biodistribution in ICR mouse skin at 5 to 10 uCi, iv after 2 mins; type: ADME, organism-based; conditions: in vivo
Zone of skin [26] = assay: Biodistribution in ICR mouse skin at 5 to 10 uCi, iv after 30 mins; type: ADME, organism-based; conditions: in vivo, 0.5 h
Zone of skin [27] = assay: Biodistribution in ICR mouse skin at 5 to 10 uCi, iv after 1 hr; type: ADME, organism-based; conditions: in vivo
Zone of skin [28] = assay: Biodistribution in ICR mouse skin at 5 to 10 uCi, iv after 2 hrs; type: ADME, organism-based; conditions: in vivo
Brain [29] = assay: Biodistribution in ICR mouse brain at 5 to 10 uCi, iv after 2 mins; type: ADME, organism-based; conditions: in vivo
Brain [30] = assay: Biodistribution in ICR mouse brain at 5 to 10 uCi, iv after 30 mins; type: ADME, organism-based; conditions: in vivo, 0.5 h
Brain [31] = assay: Biodistribution in ICR mouse brain at 5 to 10 uCi, iv after 1 hr; type: ADME, organism-based; conditions: in vivo
Brain [32] = assay: Biodistribution in ICR mouse brain at 5 to 10 uCi, iv after 2 hrs; type: ADME, organism-based; conditions: in vivo
Thyroid gland [33] = assay: Biodistribution in ICR mouse thyroid at 5 to 10 uCi, iv after 2 mins; type: ADME, organism-based; conditions: in vivo
Thyroid gland [34] = assay: Biodistribution in ICR mouse thyroid at 5 to 10 uCi, iv after 30 mins; type: ADME, organism-based; conditions: in vivo, 0.5 h
Thyroid gland [35] = assay: Biodistribution in ICR mouse thyroid at 5 to 10 uCi, iv after 1 hr; type: ADME, organism-based; conditions: in vivo
Thyroid gland [36] = assay: Biodistribution in ICR mouse thyroid at 5 to 10 uCi, iv after 2 hrs; type: ADME, organism-based; conditions: in vivo
Brain [37] = assay: Ratio of drug distribution in brain after 2 mins to 30 mins in ICR mouse at 5 to 10 uCi, iv; type: ADME, organism-based; conditions: in vivo
[38] = Partition coefficient, log P at pH 7.4; type: physicochemical; conditions: octanol/water
Blood [39] = assay: Biodistribution in ICR mouse blood at 5 to 10 uCi, iv after 2 mins; type: ADME, organism-based; conditions: in vivo
Blood [40] = assay: Biodistribution in ICR mouse blood at 5 to 10 uCi, iv after 30 mins; type: ADME, organism-based; conditions: in vivo, 0.5 h
Blood [41] = assay: Biodistribution in ICR mouse blood at 5 to 10 uCi, iv after 1 hr; type: ADME, organism-based; conditions: in vivo
Blood [42] = assay: Biodistribution in ICR mouse blood at 5 to 10 uCi, iv after 2 hrs; type: ADME, organism-based; conditions: in vivo

SMILES: CN(C)c1ccc(/C=C/c2cnc(OCCO)c([125I])c2)cc1
- Drug uptake (Heart [1]): 10.2 % ID/g
- Drug uptake (Heart [2]): 1.93 % ID/g
- Drug uptake (Heart [3]): 1.12 % ID/g
- Drug uptake (Kidney [4]): 1.48 % ID/g
- Drug uptake (Spleen [5]): 4.4 % ID/g
- Drug uptake (Spleen [6]): 1.94 % ID/g
- Drug uptake (Heart [7]): 0.62 % ID/g
- Drug uptake (Muscle tissue [8]): 0.71 % ID/g
- Drug uptake (Muscle tissue [9]): 1.05 % ID/g
- Drug uptake (Muscle tissue [10]): 0.55 % ID/g
- Drug uptake (Muscle tissue [11]): 0.22 % ID/g
- Drug uptake (Lung [12]): 9.41 % ID/g
- Drug uptake (Lung [13]): 3.02 % ID/g
- Drug uptake (Lung [14]): 1.98 % ID/g
- Drug uptake (Lung [15]): 1 % ID/g
- Drug uptake (Kidney [16]): 14.3 % ID/g
- Drug uptake (Kidney [17]): 4.19 % ID/g
- Drug uptake (Kidney [18]): 2.49 % ID/g
- Drug uptake (Spleen [19]): 1.32 % ID/g
- Drug uptake (Spleen [20]): 0.8 % ID/g
- Drug uptake (Liver [21]): 19.1 % ID/g
- Drug uptake (Liver [22]): 12.4 % ID/g
- Drug uptake (Liver [23]): 6.22 % ID/g
- Drug uptake (Liver [24]): 4.87 % ID/g
- Drug uptake (Zone of skin [25]): 0.46 % ID/g
- Drug uptake (Zone of skin [26]): 1.18 % ID/g
- Drug uptake (Zone of skin [27]): 1.16 % ID/g
- Drug uptake (Zone of skin [28]): 0.4 % ID/g
- Drug uptake (Brain [29]): 5.43 % ID/g
- Drug uptake (Brain [30]): 3.56 % ID/g
- Drug uptake (Brain [31]): 1.32 % ID/g
- Drug uptake (Brain [32]): 0.46 % ID/g
- Drug uptake (Thyroid gland [33]): 4.15 % ID/g
- Drug uptake (Thyroid gland [34]): 11.2 % ID/g
- Drug uptake (Thyroid gland [35]): 59.1 % ID/g
- Drug uptake (Thyroid gland [36]): 24.8 % ID/g
- Ratio (Brain [37]): 1.52
- logD [38]: 2.2
- Drug uptake (Blood [39]): 2.71 % ID/g
- Drug uptake (Blood [40]): 2.24 % ID/g
- Drug uptake (Blood [41]): 2.18 % ID/g
- Drug uptake (Blood [42]): 1.01 % ID/g

SMILES: CNc1ccc(/C=C/c2cnc(OCCO)c([125I])c2)cc1
- Drug uptake (Heart [1]): 7.16 % ID/g
- Drug uptake (Heart [2]): 1.5 % ID/g
- Drug uptake (Heart [3]): 0.88 % ID/g
- Drug uptake (Kidney [4]): 1.53 % ID/g
- Drug uptake (Spleen [5]): 4.08 % ID/g
- Drug uptake (Spleen [6]): 1.34 % ID/g
- Drug uptake (Heart [7]): 0.76 % ID/g
- Drug uptake (Muscle tissue [8]): 1.15 % ID/g
- Drug uptake (Muscle tissue [9]): 0.91 % ID/g
- Drug uptake (Muscle tissue [10]): 0.42 % ID/g
- Drug uptake (Muscle tissue [11]): 0.38 % ID/g
- Drug uptake (Lung [12]): 7.43 % ID/g
- Drug uptake (Lung [13]): 2.67 % ID/g
- Drug uptake (Lung [14]): 1.76 % ID/g
- Drug uptake (Lung [15]): 1.58 % ID/g
- Drug uptake (Kidney [16]): 11.5 % ID/g
- Drug uptake (Kidney [17]): 3.73 % ID/g
- Drug uptake (Kidney [18]): 2.16 % ID/g
- Drug uptake (Spleen [19]): 0.87 % ID/g
- Drug uptake (Spleen [20]): 1.08 % ID/g
- Drug uptake (Liver [21]): 20.8 % ID/g
- Drug uptake (Liver [22]): 12.6 % ID/g
- Drug uptake (Liver [23]): 5.62 % ID/g
- Drug uptake (Liver [24]): 3.41 % ID/g
- Drug uptake (Zone of skin [25]): 0.95 % ID/g
- Drug uptake (Zone of skin [26]): 1.86 % ID/g
- Drug uptake (Zone of skin [27]): 1.29 % ID/g
- Drug uptake (Zone of skin [28]): 1.43 % ID/g
- Drug uptake (Brain [29]): 8.04 % ID/g
- Drug uptake (Brain [30]): 0.88 % ID/g
- Drug uptake (Brain [31]): 0.26 % ID/g
- Drug uptake (Brain [32]): 0.15 % ID/g
- Drug uptake (Thyroid gland [33]): 6.31 % ID/g
- Drug uptake (Thyroid gland [34]): 17.2 % ID/g
- Drug uptake (Thyroid gland [35]): 36.7 % ID/g
- Drug uptake (Thyroid gland [36]): 99.9 % ID/g
- Ratio (Brain [37]): 9.13
- logD [38]: 2.2
- Drug uptake (Blood [39]): 4.14 % ID/g
- Drug uptake (Blood [40]): 3.08 % ID/g
- Drug uptake (Blood [41]): 1.81 % ID/g
- Drug uptake (Blood [42]): 1.96 % ID/g
